US8138168B1 (Takeda Pharmaceutical Company Limited, priority 2007, dated 2012)
pIC50: −log10 of the molar value.

biological target: T1, Recombinant human renin (Homo sapiens, UniProt P00797); assay: In vitro enzymatic activity assay of renin inhibitors (fluorogenic peptide substrate); assay type: biochemical; conditions: read-out: IC50 of Exemplified Compounds Against Renin
T1 construct: isolate the active form (residues 67-406); made in house; host or cells: FreeStyle 293-F cells (transient expression of pcDNA3.1(+)/hREN)
T1 sequence (P00797 67-406): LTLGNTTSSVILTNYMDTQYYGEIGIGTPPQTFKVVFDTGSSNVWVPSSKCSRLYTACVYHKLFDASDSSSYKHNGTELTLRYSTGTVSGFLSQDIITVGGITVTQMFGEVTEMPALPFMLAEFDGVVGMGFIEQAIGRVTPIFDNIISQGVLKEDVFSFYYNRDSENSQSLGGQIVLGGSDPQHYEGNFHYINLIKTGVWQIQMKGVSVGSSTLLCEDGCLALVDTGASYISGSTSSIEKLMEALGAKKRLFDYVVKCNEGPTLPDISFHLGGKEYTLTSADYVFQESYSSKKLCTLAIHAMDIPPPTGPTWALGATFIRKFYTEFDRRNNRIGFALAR
Summary of the method: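 Enzyme: recombinant human renin, 3 nM final, 10 min compound pre-incubation at 37 °C; buffer 50 mM Hepes pH 7.4 with 0.1 mg/mL BSA or extra 2% BSA; 5% DMSO.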

Structure (SMILES)	pIC50
COCCCn1c([C@@H]2CCCN(C(=O)[C@@H]3CN(C(=O)c4ccc(-c5ccccc5)o4)C[C@H]3N)C2)nc2ccccc21 [Compound 352, ((3R,4S)-4-amino-1-(5-phenylfuran-2-carbonyl)pyrrolidin-3-yl)((R)-3-(1-(3-methoxypropyl)-1H-benzo[d]imidazol-2-yl)piperidin-1-yl)methanone]	6.00 to 7.00
COCCCn1c([C@@H]2CCCN(C(=O)C[C@H](N)Cc3ccc(-c4ccc(NC(N)=O)cc4)cc3)C2)nc2ccccc21 [Compound 172, 1-(4′-((R)-2-amino-4-((R)-3-(1-(3-methoxypropyl)-1H-benzo[d]imidazol-2-yl)piperidin-1-yl)-4-oxobutyl)biphenyl-4-yl)urea]	> 7.00
COCCCn1c([C@@H]2CCCN(C(=O)[C@@H]3CN(S(=O)(=O)c4cc(Cl)ccc4OC)C[C@H]3N)C2)nc2ccccc21 [Compound 412, ((3R,4S)-4-amino-1-(5-chloro-2-methoxyphenylsulfonyl)pyrrolidin-3-yl)((R)-3-(1-(3-methoxypropyl)-1H-benzo[d]imidazol-2-yl)piperidin-1-yl)methanone]	< 6.00
COCCCn1c([C@@H]2CCCN(C(=O)C[C@H](N)Cc3ccc(-c4cccnc4OC)cc3)C2)nc2ccccc21 [Compound 163, (R)-3-amino-1-((R)-3-(1-(3-methoxypropyl)-1H-benzo[d]imidazol-2-yl)piperidin-1-yl)-4-(4-(2-methoxypyridin-3-yl)phenyl)butan-1-one]	> 7.00
CCNC(=O)Nc1ccc(-c2ccc(C[C@@H](N)CC(=O)N3CCC[C@@H](c4nc5ccccc5n4CCCOC)C3)cc2)cc1 [Compound 173, 1-(4′-((R)-2-amino-4-((R)-3-(1-(3-methoxypropyl)-1H-benzo[d]imidazol-2-yl)piperidin-1-yl)-4-oxobutyl)biphenyl-4-yl)-3-ethylurea]	> 7.00
COCCCn1c([C@@H]2CCCN(C(=O)CC(CN)c3ccc(Cl)cc3)C2)nc2ccccc21 (stereo partly drawn) [Compound 93, 4-amino-3-(4-chlorophenyl)-1-((R)-3-(1-(3-methoxypropyl)-1H-benzo[d]imidazol-2-yl)piperidin-1-yl)butan-1-one]	< 6.00
Cc1ccc(NC(=O)N2CCCC(c3nc4ccccc4[nH]3)C2)cc1Cl (stereo not drawn) [Compound 1, 3-(1H-Benzo[d]imidazol-2-yl)-N-(3-chloro-4-methylphenyl)piperidine-1-carboxamide]	< 6.00
COCCCn1c([C@@H]2CCCN(C(=O)C[C@H](N)CNC(=O)Nc3ccccc3OC(F)(F)F)C2)nc2ccccc21 [Compound 265, 1-((S)-2-amino-4-((R)-3-(1-(3-methoxypropyl)-1H-benzo[d]imidazol-2-yl)piperidin-1-yl)-4-oxobutyl)-3-(2-(trifluoromethoxy)phenyl)urea]	6.00 to 7.00
COCCCn1c([C@@H]2CCCN(C(=O)C[C@H](N)Cc3ccc(-c4ccc5[nH]ncc5c4)cc3)C2)nc2c(C)cccc21 [Compound 499, (R)-4-(4-(1H-indazol-5-yl)phenyl)-3-amino-1-((R)-3-(1-(3-methoxypropyl)-4-methyl-1H-benzo[d]imidazol-2-yl)piperidin-1-yl)butan-1-one]	> 7.00
COCCCn1c([C@@H]2CCCN(C(=O)C[C@H](N)Cc3ccc4ccccc4c3)C2)nc2ccc(OC)cc21 [Compound 110, (R)-3-amino-1((R)-3-(6-methoxy-1-(3-methoxypropyl)-1H-benzo[d]imidazol-2-yl)piperidin-1-yl)-4-(naphthalen-2-yl)butan-1-one]	6.00 to 7.00
COCCCn1c([C@@H]2CCCN(C(=O)C[C@H](N)Cc3ccc(-c4ccc(C(=O)NCCO)cc4)cc3)C2)nc2ccccc21 [Compound 182, 4′-((R)-2-amino-4-((R)-3-(1-(3-methoxypropyl)-1H-benzo[d]imidazol-2-yl)piperidin-1-yl)-4-oxobutyl)-N-(2-hydroxyethyl)biphenyl-4-carboxamide]	> 7.00
COCCCn1c([C@@H]2CCCN(C(=O)[C@@H]3CN(S(=O)(=O)c4ccc(Cl)cc4)C[C@H]3N)C2)nc2ccccc21 [Compound 370, ((3R,4S)-4-amino-1-(4-chlorophenylsulfonyl)pyrrolidin-3-yl)((R)-3-(1-(3-methoxypropyl)-1H-benzo[d]imidazol-2-yl)piperidin-1-yl)methanone]	6.00 to 7.00
COCCCn1c([C@@H]2CCCN(C(=O)C[C@H](N)Cc3cc(F)c(F)cc3F)C2)nc2ccccc21 [Compound 86, (R)-3-amino-1((R)-3-(1-(3-methoxypropyl)-1H-benzo[d]imidazol-2-yl)piperidin-1-yl)-4-(2,4,5-trifluorophenyl)butan-1-one]	6.00 to 7.00
COCCCn1c([C@@H]2CCCN(C(=O)C[C@H](N)Cc3ccc(-n4ccnc4)cc3)C2)nc2ccccc21 [Compound 208, (R)-4-(4-(1H-imidazol-1-yl)phenyl)-3-amino-1-((R)-3-(1-(3-methoxypropyl)-1H-benzo[d]imidazol-2-yl)piperidin-1-yl)butan-1-one]	> 7.00
COCCCn1c([C@@H]2CCCN(C(=O)C[C@H](N)Cc3ccc(-c4ccc(C(=O)NCCOC)cc4)cc3)C2)nc2ccccc21 [Compound 177, 4′-((R)-2-amino-4-((R)-3-(1-(3-methoxypropyl)-1H-benzo[d]imidazol-2-yl)piperidin-1-yl)-4-oxobutyl)-N-(2-methoxyethyl)biphenyl-4-carboxamide]	> 7.00
N[C@@H](CC(=O)N1CCC[C@@H](c2nc3ccccc3[nH]2)C1)Cc1ccc(-c2ccccc2)cc1 [Compound 71, (R)-1-((R)-3-(1H-benzo[d]imidazol-2-yl)piperidin-1-yl)-3-amino-4-(biphenyl-4-yl)butan-1-one]	< 6.00
COCCCn1c([C@@H]2CCCN(C(=O)C[C@H](N)CNC(=O)c3cccc(F)c3)C2)nc2ccccc21 [Compound 318, N-((S)-2-amino-4-((R)-3-(1-(3-methoxypropyl)-1H-benzo[d]imidazol-2-yl)piperidin-1-yl)-4-oxobutyl)-3-fluorobenzamide]	6.00 to 7.00
COCCCn1c([C@@H]2CCCN(C(=O)C[C@H](N)CNC(=O)Nc3cc(C(C)(C)C)ccc3OC)C2)nc2ccccc21 [Compound 268, 1-((S)-2-amino-4-((R)-3-(1-(3-methoxypropyl)-1H-benzo[d]imidazol-2-yl)piperidin-1-yl)-4-oxobutyl)-3-(5-tert-butyl-2-methoxyphenyl)urea]	6.00 to 7.00
COCCCn1c([C@@H]2CCCN(C(=O)C[C@H](N)Cc3ccc(-c4ccc5c(c4)OCC(=O)N5)cc3)C2)nc2c(F)cccc21 [Compound 443, 7-(4-((R)-2-amino-4-((R)-3-(4-fluoro-1-(3-methoxypropyl)-1H-benzo[d]imidazol-2-yl)piperidin-1-yl)-4-oxobutyl)phenyl)-2H-benzo[b][1,4]oxazin-3(4H)-one]	> 7.00
COCCCn1c([C@@H]2CCCN(C(=O)[C@@H]3CN(S(=O)(=O)c4cc(Cl)ccc4Cl)C[C@H]3N)C2)nc2ccccc21 [Compound 343, ((3R,4S)-4-amino-1-(2,5-dichlorophenylsulfonyl)pyrrolidin-3-yl)((R)-3-(1-(3-methoxypropyl)-1H-benzo[d]imidazol-2-yl)piperidin-1-yl)methanone]	6.00 to 7.00
COCCCn1c([C@@H]2CCCN(C(=O)C[C@H](N)c3cccc(OC)c3)C2)nc2ccccc21 [Compound 121]	< 6.00
COCCCn1c([C@@H]2CCCN(C(=O)C[C@H](N)Cc3ccc(-c4ccc5c(c4)OCCN5C)cc3)C2)nc2c(F)cccc21 [Compound 453, (R)-3-amino-1-((R)-3-(4-fluoro-1-(3-methoxypropyl)-1H-benzo[d]imidazol-2-yl)piperidin-1-yl)-4-(4-(4-methyl-3,4-dihydro-2H-benzo[b][1,4]oxazin-7-yl)phenyl)butan-1-one]	> 7.00
COCCCn1c([C@@H]2CCCN(C(=O)C[C@H](N)Cc3ccc4ccccc4c3)C2)nc2cc([N+](=O)[O-])ccc21 [Compound 115, (R)-3-arni no-1-((R)-3-(1-(3-methoxypropyl)-5-nitro-1H-benzo[d]imidazol-2-yl)piperidin-1-yl)-4-(naphthalen-2-yl)butan-1-one]	6.00 to 7.00
COCCCn1c([C@@H]2CCCN(C(=O)C[C@H](N)CNC(=O)c3ccc4c(c3)OCCO4)C2)nc2ccccc21 [Compound 308, N-((S)-2-amino-4-((R)-3-(1-(3-methoxypropyl)-1H-benzo[d]imidazol-2-yl)piperidin-1-yl)-4-oxobutyl)-2,3-dihydrobenzo[b][1,4]dioxine-6-carboxamide]	6.00 to 7.00
N[C@@H](CC(=O)N1CCCC(c2nc3ccccc3[nH]2)C1)Cc1ccc(Br)cc1 (stereo partly drawn) [Compound 34, (3R)-1-(3-(1H-benzo[d]imidazol-2-yl)piperidin-1-yl)-3-amino-4-(4-bromophenyl)butan-1-one]	< 6.00
COCCCn1c([C@@H]2CCCN(C(=O)[C@@H]3CN(C(=O)c4ccc(OC)cc4)C[C@H]3N)C2)nc2ccccc21 [Compound 394, ((3R,4S)-4-amino-1-(4-methoxybenzoyl)pyrrolidin-3-yl)((R)-3-(1-(3-methoxypropyl)-1H-benzo[d]imidazol-2-yl)piperidin-1-yl)methanone]	< 6.00
COCCCn1c([C@@H]2CCCN(C(=O)[C@@H]3CN(c4ccc([N+](=O)[O-])cc4)C[C@H]3N)C2)nc2ccccc21 [Compound 508, ((3R,4S)-4-amino-1-(4-nitrophenyl)pyrrolidin-3-yl)((R)-3-(1-(3-methoxypropyl)-1H-benzo[d]limidazol-2-yl)piperidin-1-yl)methanone]	6.00 to 7.00
